Values joined by “and” are separate entries in the source; they are usually repeats but may differ in a detail not shown here. Identical values can stand only once. “Also recorded” adds a separate entry of the source.
Key:
[1] = system: native rabbit intestinal tissue
[2] = system: native rabbit intestinal tissue; assay: Electrical field stimulation induced relaxation, real-time force generation
[3] = system: native rabbit intestinal tissue; remark: listed apart in the source
[4] = system: tissue engineered innervated intestinal smooth muscle sheets; assay: Electrical field stimulation induced relaxation, real-time force generation; assay type: cell-based, rabbit
[5] = system: tissue engineered innervated intestinal smooth muscle sheets; assay type: cell-based, rabbit

Q: With `[Cl-].[K+]` [KCl, Potassium chloride] as the molecule, how does the “peak KCl-induced contraction” value [1] read?
A: 373.5±10.63 μN and 373.3±10.63 μN

Q: With “[D-p-Cl-Phe6, Leu17]-Vasoactive Intestinal Peptide [VIP-Ra]” as the molecule, how does the “inhibition of EFS-induced relaxation with VIP-Ra” value ([2]; VIP-Ra 2 μM pre-treatment) read?
A: 73.32±3.23%

Q: Which results are given for `COC(=O)[C@@H](N)CCCNC(=N)N[N+](=O)[O-].Cl` [L-NAME, Nω-Nitro-L-arginine methyl ester hydrochloride]?
A: inhibition of EFS-induced relaxation with L-NAME ([2]; L-NAME 300 μM pre-treatment, hydrochloride): 78±2.9% and ~78%; inhibition at 300 µM ([2]; Oryctolagus cuniculus, L-NAME 300 μM pre-treatment, read-out: inhibition of EFS-induced relaxation with L-NAME): 78 ± 2.85%

Q: With `CC(=O)OCC[N+](C)(C)C` [Ach, Acetylcholine] as the molecule, how does the “area under the curve of Ach-induced contraction” value ([3]; 1 μM Ach, native tissue) read?
A: 70448±5876 AU

Q: And the “peak Ach-induced contraction” value ([3]; 1 μM Ach, native tissue)?
A: 342.6±3.15 μN

Q: With `NC1=N[C@H](O)[C@H]2[C@H]3O[C@]4(O)O[C@@H]([C@@H](O)[C@@]2(N1)[C@@H]4O)[C@]3(O)CO` [TTX, tetrodotoxin] as the molecule, how does the “effect of TTX pre-treatment on EFS-induced relaxation” value [4] read?
A: inhibited entirely

Q: And the “effect of TTX pre-treatment on KCl-induced contraction” value [5]?
A: unaffected; also recorded: did not inhibit

Q: And the “inhibition of Ach-induced contraction with TTX” value [3]?
A: 72.73±3.66% and 72.73±3.7%
